Assay results: US10314819B2, “Solid state forms of Eluxadoline” (TEVA PHARMACEUTICALS INTERNATIONAL GMBH, priority 2015, dated 2019)

Assays:
Format in all cases: physicochemical
[1] = Texture analysis / density at 0.2 MPa; conditions: 200 mg sample compressed in steel mould
Description: A simple and low sample consuming method for evaluation of the packing density of powders were obtained as compression profiles under low pressures using a die and a flat-faced punch fitted on a TA-XTplus Texture analyser (Stable Micro Systems Ltd., Godalming, UK). The small amount of 200 mg of sample is compressed in a steel mould (with the rate of displacement 0.03 mm/s). Also, a cyclic procedure (similar to tapping) was performed at maximal compressive displacement 0.5 mm, then retracting, relaxation for 15 s and then repeated compressive steps (altogether up to 20 steps).

[2] = Dissolution in 50 mM phosphate buffer pH = 7.4 at 37° C.; conditions: 50 mM phosphate buffer pH = 7.4, 37° C.
Description: Samples were prepared and analysed in duplicate. About 20 mg of each sample were weighed into 500 ml Erlenmeyer flask, 200 ml of 50 mM phosphate buffer pH=7.4, previously heated to 37° C. were added and flasks were shaken at 110 rpm for 60 minutes at 37±0.2° C. in an incubator shaker. 3 ml aliquots were taken at 5, 10, 20, 30, 45 and 60 min, filtered through 0.45 μm Chromafil Xtra RC 45/25 syringe filter and analysed by UV/VIS spectrometer (absorbance at 203 nm).
The measurement was performed using the following instruments: • pH/Ion meter PHM 240, MeterLab, Radiometer Analytical • Incubator shaker Innova 4080, New Brunswick Scientific, 19 mm diameter circular orbit • UV/VIS spectrometer Varian Cary 50 Bio, 1 mm quartz cell Results of Eluxadoline samples dissolution in 50 mM phosphate buffer pH=7.4 are summarized in Table 8 below: […]

[3] = % weight loss / water content (TGA, KF) after storage at various relative humidity; conditions: for % weight loss/water cont. - after 21 days, TGA: TGA up to 121° C.
Description: (§1) The obtained amorphous form was stored at various conditions, and the PXRD was analyzed after 3 and 7 days:
(§2) The obtained form alpha was stored at various conditions, and the PXRD was analyzed after 3 and 8 days:
(§3) The obtained amorphous form was stored at various conditions of relative humidity, and the PXRD was obtained after 1M (Table 4):
(§4) The obtained amorphous form was stored at various conditions, and the PXRD was obtained after 2M (Table 5):
(§5) XRPD pattern is shown in FIG. 16; SEM image is shown in FIG. 17; DSC thermogram is shown in FIG. 21 and TGA thermogram is shown in FIG. 22. The obtained form alpha was stored at various conditions, and the PXRD was obtained after 8, 14, and 21 days (Table 6): […]

[4] = Polymorph stability on storage at various relative humidity (PXRD)
Description: Sample after being powdered in a mortar and pestle is applied directly on a silicon plate holder. The X-ray powder diffraction pattern was measured with Philips X'Pert PRO X-ray powder diffractometer, equipped with Cu irradiation source=1.54184 Å(Ångström), X'Celerator (2.022° 2θ) detector. Scanning parameters: angle range: 3-40 deg., step size 0.0167, time per step 37 s, continuous scan.
as §1
The obtained pure amorphous form was stored at various conditions, and the PXRD was analyzed after 3 and 7 days:
as §2, §3, §4, §5

[5] = Specific surface area (SSA), BET nitrogen
Description: Specific Surface Area (SSA) measurements (Bet Nitrogen) were determined using a Micromeritics ASAP 2000, specific surface area analyzer. Samples were subjected to the BET nitrogen adsorption analysis to determine the specific surface of the samples.
Sample tube: 10 cc bulb with ½″ stem
Sample mass: Approximately ½ full cell
Sample preparation: Degassing with nitrogen
Outgassing conditions: 40° C. (30 min)
Isothermal collection point: 20 adsorption points, in the range 0-1 P/P0
Isothermal data analysis range: 5 point BET in the range 0.05-0.20 P/P0
Equilibration interval: 5 s
Equilibration time out: 600 s

[6] = Bulk density/tapped density, Hausner ratio and Carr index (Ph. Eur. 2.9.34. Method 1); conditions: PSD/μm 3/8/24
Description: Bulk density/tapped density and corresponding Hausner ratio and Carr index were determined according to Ph. Eur. 2.9.34. Method 1.

With `COc1ccc(CN(C(=O)[C@@H](N)Cc2c(C)cc(C(N)=O)cc2C)[C@@H](C)c2nc(-c3ccccc3)c[nH]2)cc1C(=O)O` [Example 22] as the molecule, how does the “Density at 0.2 MPa” value [1] read?
The value was 0.4707 mg/mm^3.

What about the “% dissolved” value ([2]; 5 min) of the same molecule?
Its value is 83.62%.

And the “% dissolved” value ([2]; 10 min)?
Its value is 91.02%.

What about the “% dissolved” value ([2]; 20 min) of the same molecule?
Its value is 95.48%.

What about the “% dissolved” value ([2]; 30 min) of the same molecule?
Its value is 95.87%.

And the “% dissolved” value ([2]; 45 min)?
Its value is 96.56%.

And the “% dissolved” value ([2]; 60 min)?
The value was 96.64%.

What about the “% weight loss/water cont. - after 21 days, TGA” value ([3]; 0% RH, 21 days) of the same molecule?
The value was “TGA-0.96%”.

What about the “% weight loss/water cont. - after 21 days, TGA” value ([3]; 20% RH, 21 days) of the same molecule?
Its value is “TGA-1.26%”.

And the “% weight loss/water cont. - after 21 days, TGA” value ([3]; 40% RH, 21 days)?
The value was “TGA-1.46%”.

And the “% weight loss/water cont. - after 21 days, TGA” value ([3]; 60% RH, 21 days)?
Its value is “TGA-6.30%”.

What about the “% weight loss/water cont. - after 21 days, TGA” value ([3]; 80% RH, 21 days) of the same molecule?
Its value is “TGA-7.00%”.

And the “% weight loss/water cont. - after 21 days, TGA” value ([3]; 100% RH, 21 days)?
Its value is “TGA-9.01%”.

And the “% weight loss/water cont. - after 21 days, KF” value ([3]; As is)?
Its value is 1.12%.

And the “% weight loss/water cont. - after 21 days, TGA” value ([3]; As is)?
The value was 0.95%.

What about the “PXRD results - after 21 days” value ([4]; 0% RH, 21 days) of the same molecule?
Its value is “alpha”.

What about the “PXRD results - after 21 days” value ([4]; 20% RH, 21 days) of the same molecule?
The value was “alpha”.

What about the “PXRD results - after 21 days” value ([4]; 40% RH, 21 days) of the same molecule?
The value was “alpha”.

What about the “PXRD results - after 21 days” value ([4]; 60% RH, 21 days) of the same molecule?
Its value is “alpha”.

And the “PXRD results - after 21 days” value ([4]; 80% RH, 21 days)?
The value was “alpha”.

What about the “PXRD results - after 21 days” value ([4]; 100% RH, 21 days) of the same molecule?
The value was “alpha”.

And the “PXRD results - after 21 days” value ([4]; As is)?
The value was “alpha”.

What about the SSA [5] of the same molecule?
Its SSA is 9.63 m^2/g.

What about the Bulk density [6] of the same molecule?
Its Bulk density is 0.33 mg/mm^3.

And the “Carr's index” value [6]?
Its value is 14.93%.

What about the “Flow character (Carr's index)” value [6] of the same molecule?
The value was “good”.

And the Hausner ratio [6]?
Its Hausner ratio is 1.18.

And the Tapped density [6]?
Its Tapped density is 0.39 mg/mm^3.
